Test systems include 786-0 renal; HCT-116 colon; HCT-15 colon; IGROV1 ovarian; MDA-MB-435; NCI-H226 lung; OVCAR-3 ovarian; PC-3 prostate; SN12C renal; HOP-92 NSCLC.
Common to all, as to assay: NCI anticancer screen, dose series, 48 h

Molecules are shown by their SMILES.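 The compound was tested at five concentrations on cells cultured in 96-well plates, with a 48-hour exposure period. Here, GI50 denotes the concentration required for 50% inhibition of growth. TGI: total growth inhibition.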

On to `CO/N=C(/COc1c(-c2ccccc2)oc2ccccc2c1=O)c1ccc(OC)cc1`, for which the GI50 is above 100 µM in the experiment on 786-0 renal; above 100 µM with HCT-116 colon; above 100 µM in the experiment with HCT-15 colon; above 100 µM in the experiment with IGROV1 ovarian; 30.7 µM in the experiment with MDA-MB-435; above 100 µM in the experiment with NCI-H226 lung. Further, the figures for the GI50 in the experiment on OVCAR-3 ovarian, with PC-3 prostate and in the experiment on SN12C renal were above 100 µM, above 100 µM and 76.7 µM, respectively. The TGI in the experiment on 786-0 renal, in the experiment on HCT-116 colon, with HCT-15 colon, with IGROV1 ovarian, in the experiment on MDA-MB-435 and with NCI-H226 lung was above 100 µM each time. Besides, the TGI with OVCAR-3 ovarian, in the experiment on PC-3 prostate and with SN12C renal was above 100 µM each time.
For the compound `O=C(NC(=S)NNC(=S)NNc1ccccc1)c1ccccc1`, the GI50 with 786-0 renal is 24.8 µM; in the experiment with HCT-116 colon it was 4.05 µM; in the experiment on HCT-15 colon it was 5.21 µM; with IGROV1 ovarian, 4.8 µM; in the experiment with MDA-MB-435 it was 3.47 µM; with NCI-H226 lung, 4.62 µM. The values for the GI50 with OVCAR-3 ovarian and in the experiment on SN12C renal were 18.2 µM and 4.87 µM, respectively. For the same compound, the TGI with 786-0 renal, in the experiment with HCT-116 colon, in the experiment on HCT-15 colon, in the experiment on IGROV1 ovarian, with MDA-MB-435 and in the experiment on NCI-H226 lung was above 100 µM each time. In addition, the TGI with OVCAR-3 ovarian and in the experiment on SN12C renal was above 100 µM throughout.
On to `O=C(NNc1ccccc1)OCc1ccccc1`, for which the GI50 is 7.01 µM in the experiment on 786-0 renal; 12.4 µM in the experiment with HCT-116 colon; 4.98 µM in the experiment on HCT-15 colon; 14.7 µM in the experiment with HOP-92 NSCLC; 15.2 µM in the experiment with IGROV1 ovarian; 4.13 µM in the experiment on MDA-MB-435. Also, the GI50 is 21 µM in the experiment with OVCAR-3 ovarian, 5.35 µM in the experiment on PC-3 prostate and 73.8 µM in the experiment with SN12C renal. Further, the TGI with 786-0 renal, in the experiment with HCT-116 colon, in the experiment on HCT-15 colon, in the experiment with HOP-92 NSCLC, in the experiment on IGROV1 ovarian and with MDA-MB-435 was above 100 µM throughout. The TGI in the experiment with OVCAR-3 ovarian, in the experiment with PC-3 prostate and in the experiment on SN12C renal was above 100 µM each time.
Regarding `ClC1=NC(Cl)C(Cl)=N/C1=N\c1ncn[nH]1` (configuration not stated), the GI50 with 786-0 renal was 3.41 µM; in the experiment with HCT-116 colon it was 1.76 µM; in the experiment on HCT-15 colon it was 1.95 µM; in the experiment with HOP-92 NSCLC it was 1.59 µM; in the experiment on IGROV1 ovarian, 2.23 µM; in the experiment on MDA-MB-435, 2.24 µM. The GI50 in the experiment with NCI-H226 lung was 3.27 µM; in the experiment on OVCAR-3 ovarian it was 1.95 µM; in the experiment with SN12C renal it was 1.76 µM. Further, the TGI in the experiment on 786-0 renal was found to be 11.4 µM; with HCT-116 colon, 3.48 µM; in the experiment on HCT-15 colon, 4.68 µM; in the experiment with HOP-92 NSCLC, 3.1 µM; in the experiment with IGROV1 ovarian, 4.63 µM; in the experiment on MDA-MB-435, 6.01 µM. For the same compound, the TGI came to 15.9 µM in the experiment with NCI-H226 lung, 3.4 µM in the experiment on OVCAR-3 ovarian and 3.31 µM with SN12C renal.
On to `CCN(C(=O)CCl)C(C)(C)C(SSSC(c1ccc(Cl)cc1)C(C)(C)N(CC)C(=O)CCl)c1ccc(Cl)cc1` (configuration not stated), for which the GI50 in the experiment on 786-0 renal is 13.6 µM; in the experiment with HCT-116 colon it was 4.47 µM; in the experiment on HCT-15 colon, 2.84 µM; in the experiment on HOP-92 NSCLC, 1.29 µM; in the experiment on IGROV1 ovarian, 10.9 µM; in the experiment on MDA-MB-435 it was 2.14 µM. In addition, the GI50 with NCI-H226 lung was 15 µM; in the experiment on OVCAR-3 ovarian, 8.46 µM; with SN12C renal, 12.5 µM. The TGI in the experiment on 786-0 renal came out at 31.2 µM; in the experiment on HCT-116 colon it was 18.5 µM; with HCT-15 colon it was 12.8 µM; with HOP-92 NSCLC, 8.6 µM; in the experiment with IGROV1 ovarian, 31.5 µM; in the experiment with MDA-MB-435, 5.49 µM. In addition, the TGI in the experiment on NCI-H226 lung was 33.4 µM; in the experiment on OVCAR-3 ovarian, 21.6 µM; in the experiment on SN12C renal, 26.4 µM.
`Cc1ncc(C(=O)Nc2ccc(CN3CCN(C)CC3)c(C(F)(F)F)c2)cc1C#Cc1cnc(N)c2ncccc12`: the GI50 with 786-0 renal is 0.508 µM; with HCT-116 colon it was 0.218 µM; in the experiment on HCT-15 colon, 0.0752 µM; in the experiment with HOP-92 NSCLC, 0.129 µM; in the experiment with MDA-MB-435 it was 0.0419 µM; in the experiment on NCI-H226 lung it was 0.293 µM. In addition, the GI50 was 1.32 µM with OVCAR-3 ovarian, 1.22 µM in the experiment on PC-3 prostate and 0.221 µM with SN12C renal. Also, the TGI in the experiment with 786-0 renal stood at 2.88 µM; in the experiment with HCT-116 colon, 2.4 µM; in the experiment with HCT-15 colon, 1.79 µM; in the experiment with HOP-92 NSCLC, 1.66 µM; in the experiment with MDA-MB-435 it was 1.58 µM; in the experiment with NCI-H226 lung, 24.3 µM. Also, the results for the TGI in the experiment with OVCAR-3 ovarian, in the experiment with PC-3 prostate and with SN12C renal were 4.96 µM, 2.8 µM and 1.91 µM, respectively.
`CCN(CC)CCCOc1cc(O)c2c(=O)cc(-c3ccccc3)oc2c1`: the GI50 with 786-0 renal was 11.3 µM; in the experiment with HCT-15 colon it was 3.94 µM; in the experiment with HOP-92 NSCLC, 3.08 µM; in the experiment on IGROV1 ovarian it was 6.17 µM; with MDA-MB-435, 5.5 µM; in the experiment with NCI-H226 lung it was 13.6 µM. In addition, the GI50 in the experiment on OVCAR-3 ovarian was 15.5 µM; in the experiment on PC-3 prostate, 10.8 µM; in the experiment on SN12C renal, 10.1 µM. For the same compound, the TGI in the experiment on 786-0 renal came to 24.1 µM; in the experiment on HCT-15 colon, 14.6 µM; with HOP-92 NSCLC it was 16.7 µM; with IGROV1 ovarian it was 22.1 µM; in the experiment with MDA-MB-435 it was 24.8 µM; in the experiment with NCI-H226 lung it was 29.7 µM. Further, the TGI with OVCAR-3 ovarian is 34.1 µM; in the experiment with PC-3 prostate it was 25.3 µM; in the experiment with SN12C renal, 22.8 µM.
On to `O=C(OCC1OC(OC(=O)c2cc(O)c(O)c(OC(=O)c3cc(O)c(O)c(O)c3)c2)C(OC(=O)c2cc(O)c(O)c(OC(=O)c3cc(O)c(O)c(O)c3)c2)C(OC(=O)c2cc(O)c(O)c(OC(=O)c3cc(O)c(O)c(O)c3)c2)C1OC(=O)c1cc(O)c(O)c(OC(=O)c2cc(O)c(O)c(O)c2)c1)c1cc(O)c(O)c(OC(=O)c2cc(O)c(O)c(O)c2)c1` (configuration not stated), for which the GI50 with 786-0 renal is 46.9 µM; with HCT-116 colon, 21.9 µM; with HCT-15 colon it was 9.73 µM; in the experiment with HOP-92 NSCLC, 43.9 µM; in the experiment with MDA-MB-435, 10.9 µM; with NCI-H226 lung, 16.6 µM. Besides, the GI50 is 9.99 µM with OVCAR-3 ovarian, 10.1 µM in the experiment on PC-3 prostate and 11.4 µM in the experiment with SN12C renal. In addition, the TGI with 786-0 renal is above 50 µM; with HCT-116 colon, above 50 µM; in the experiment with HCT-15 colon, above 50 µM; in the experiment on HOP-92 NSCLC, above 50 µM; in the experiment with MDA-MB-435 it was 30.5 µM; in the experiment with NCI-H226 lung it was above 50 µM. Further, the TGI in the experiment on OVCAR-3 ovarian is 31.2 µM; with PC-3 prostate, above 50 µM; with SN12C renal, 29.8 µM.

The record behind these values is PubChem BioAssay (NCI).
